{"source": "paper PMC3320885", "about": "(PLoS ONE, 2012)", "origin": "cited, not measured here", "key": {"[1]": {"test_system": "BCR-Abl T315I mutant"}, "[2]": {"test_system": "BCR-Abl V299L mutant"}, "[3]": {"test_system": "receptor tyrosine kinase Kit", "parameters": "method as in PMID 12543790, PMID 17114238"}, "[4]": {"test_system": "receptor tyrosine kinase PDGFR", "parameters": "method as in PMID 12543790, PMID 17114238"}, "[5]": {"test_system": "BCR-Abl Q252H mutant"}, "[6]": {"test_system": "BCR-Abl Y253F mutant"}}}
{"compound": "COc1cc(Nc2c(C#N)cnc3cc(OCCCN4CCN(C)CC4)c(OC)cc23)c(Cl)cc1Cl", "note": "[bosutinib]", "values": [{"measurement": "effect of T315I mutation", "setting": "[1]", "result": "confer resistance"}, {"measurement": "effect of V299L mutation", "setting": "[2]", "result": "confer resistance"}, {"measurement": "activity against Kit", "setting": "[3]", "result": "devoid of activity"}, {"measurement": "activity against PDGFR", "setting": "[4]", "result": "devoid of activity"}, {"measurement": "effect of Q252H mutation on inhibition", "setting": "[5]", "result": "not affected"}, {"measurement": "effect of Y253F mutation on inhibition", "setting": "[6]", "result": "not affected"}]}
